Test system: gene expression in the kidney
Experiment: GeneChip microarray survey of E2 regulated gene expression, kidney
Procedure: FIG. 1 depicts a pattern analysis generated by a GeneChip microarray analysis. […] Two hours following the final dose, the mice were euthanized and 13 tissues removed for RNA preparation. Two independent studies were performed, with total RNA pooled from two groups of three animals for each condition. Gene expression was quantified by GeneChip microarrays using murine U74 sub A arrays. Data were analyzed for patterns indicating either ERα or ERβ dependent regulation as shown. […] The number of genes in each tissue that matched the theoretical induction (↑) or repression (↓) patterns for ERα or ERβ are indicated.
FIGS. 2A-2C show a series of bar graphs showing gene expression levels of known genes regulated in the kidney in an ERα pattern. […] Expression was measured in two independent sets of animals, with two groups of animals for each treatment in each study. A gene name abbreviation is shown above each graph, with the corresponding Unigene designation shown below.
One week later, the animals were ovariectomized.
GeneChip—Total RNA was prepared separately from each individual organ by using Trizol (Invitrogen) followed by subsequent repurification on Rneasy columns (Qiagen). In general, two pools of RNA were created using equal amounts of RNA from three mice. For small organs such as pituitary, an equal amount of RNA from six animals was combined.
Target Preparation and Array Hybridization—Total RNA was used to generate biotin labeled cRNA target as described (8) which was hybridized to the murine MG_U74Av2 probe arrays (Affymetrix, Santa Clara, Calif.) for 16 h at 45° C. Eleven biotin-labeled cRNAs at defined concentration were spiked into each hybridization and used to convert average difference values to frequencies expressed as parts per million.
The resulting data set was queried for genes whose regulation was dependent on ERα or ERβ.

For `C[C@]12CC[C@@H]3c4ccc(O)cc4CC[C@H]3[C@@H]1CC[C@@H]2O` [E2, 17β-estradiol], the “E2 Expr (/evansm/Kidney, mouse/Study 1, U74v2/WT E2 kidney (81036))” value (101979_at, AF055638, growth arrest and DNA-damage-inducible 45 gamma) was 42, the “E2 Expr (/evansm/Kidney, mouse/Study 1, U74v2/WT E2 kidney (81036))” value (102693_f_at, J00389, kallikrein 13, kallikrein 26) was 86 and the “E2 Expr (/evansm/Kidney, mouse/Study 1, U74v2/WT E2 kidney (81036))” value (102788_s_at, U70132, paired-like homeodomain transcription factor 2) was 23. For the same compound, the “E2 Expr (/evansm/Kidney, mouse/Study 1, U74v2/WT E2 kidney (81036))” value (103048_at, M12731, neuroblastoma myc-related oncogene 1) was 39, the “E2 Expr (/evansm/Kidney, mouse/Study 1, U74v2/WT E2 kidney (81036))” value (103556_at, AI840158, angiopoletin-like 2) was 24 and the “E2 Expr (/evansm/Kidney, mouse/Study 1, U74v2/WT E2 kidney (81036))” value (103729_at, M36775, laminin, alpha 1) was 17. For the same compound, the “E2 Expr (/evansm/Kidney, mouse/Study 1, U74v2/WT E2 kidney (81036))” value (103739_at, AW230977, RIKEN cDNA 1110017N23 gene) was 33, the “E2 Expr (/evansm/Kidney, mouse/Study 1, U74v2/WT E2 kidney (81036))” value (104221_at, AB017189, solute carrier family 7 (cationic amino acid transporter, y+ system), member 5) was 61 and the “E2 Expr (/evansm/Kidney, mouse/Study 1, U74v2/WT E2 kidney (81036))” value (104477_at, AW047643, Mm.29940) was 15. The “E2 Expr (/evansm/Kidney, mouse/Study 1, U74v2/WT E2 kidney (81036))” value (104495_f_at, Y00500, kallikrein 5) was 115, the “E2 Expr (/evansm/Kidney, mouse/Study 1, U74v2/WT E2 kidney (81036))” value (104497_f_at, X03994, kallikrein 8) was 53 and the “E2 Expr (/evansm/Kidney, mouse/Study 1, U74v2/WT E2 kidney (81036))” value (104550_at, AW123273, ?CYP2S1 Cytochrome P450) was 22. The “E2 Expr (/evansm/Kidney, mouse/Study 1, U74v2/WT E2 kidney (81036))” value (104776_at, AA600617, Mm.33238) was 4, the “E2 Expr (/evansm/Kidney, mouse/Study 1, U74v2/WT E2 kidney (81036))” value (104880_at, AI843154, Mm.33730) was 2 and the “E2 Expr (/evansm/Kidney, mouse/Study 1, U74v2/WT E2 kidney (81036))” value (105737_at, AI851277, Mm.39735) was 8. The “E2 Expr (/evansm/Kidney, mouse/Study 1, U74v2/WT E2 kidney (81036))” value (106195_at, AI851948, Mm.22808) was 8, the “E2 Expr (/evansm/Kidney, mouse/Study 1, U74v2/WT E2 kidney (81036))” value (107993_at, AI847249, Mm.27680) was 9 and the “E2 Expr (/evansm/Kidney, mouse/Study 1, U74v2/WT E2 kidney (81036))” value (108265_at, AW120464, Mm.54158) was 12. For the same compound, the “E2 Expr (/evansm/Kidney, mouse/Study 1, U74v2/WT E2 kidney (81036))” value (108749_at, AA611885, Mm.23047) was 34, the “E2 Expr (/evansm/Kidney, mouse/Study 1, U74v2/WT E2 kidney (81036))” value (108851_at, AW125899, Ras-like protein) was 10 and the “E2 Expr (/evansm/Kidney, mouse/Study 1, U74v2/WT E2 kidney (81036))” value (109176_at, AI846059, RAI17 Retinoic acid Induced 17) was 79. The “E2 Expr (/evansm/Kidney, mouse/Study 1, U74v2/WT E2 kidney (81036))” value (110591_at, AA270831, SH3 domain protien D19) was 23, the “E2 Expr (/evansm/Kidney, mouse/Study 1, U74v2/WT E2 kidney (81036))” value (110767_r_at, AA959550, vascular endothelial growth factor) was 37 and the “E2 Expr (/evansm/Kidney, mouse/Study 1, U74v2/WT E2 kidney (81036))” value (110850_at, AA959574, NRIP1 Nuclear receptor interacting protein 1, RIP140) was 76. The “E2 Expr (/evansm/Kidney, mouse/Study 1, U74v2/WT E2 kidney (81036))” value (111046_r_at, AI957367, 17b dehydrogenase A homolog) was 17, the “E2 Expr (/evansm/Kidney, mouse/Study 1, U74v2/WT E2 kidney (81036))” value (113125_at, AI851671, signal transducer and activator of transcription 5B) was 31 and the “E2 Expr (/evansm/Kidney, mouse/Study 1, U74v2/WT E2 kidney (81036))” value (114903_at, AI447633, Mm.26357) was 96. The “E2 Expr (/evansm/Kidney, mouse/Study 1, U74v2/WT E2 kidney (81036))” value (116273_at, AW123862, Mm.31953) was 7, the “E2 Expr (/evansm/Kidney, mouse/Study 1, U74v2/WT E2 kidney (81036))” value (117208_at, AI838208, RIKEN cDNA 1110003O08 gene) was 37 and the “E2 Expr (/evansm/Kidney, mouse/Study 1, U74v2/WT E2 kidney (81036))” value (129147_r_at, AI931796, similar to TYROSINE-PROTEIN KINASE RECEPTOR TIE-1 PRECURSOR) was 6. For the same compound, the “E2 Expr (/evansm/Kidney, mouse/Study 1, U74v2/WT E2 kidney (81036))” value (131149_at, AW214502, RIKEN cDNA 5033417D07 gene) was 7, the “E2 Expr (/evansm/Kidney, mouse/Study 1, U74v2/WT E2 kidney (81036))” value (131226_at, AI842542, Mm.23157) was 8 and the “E2 Expr (/evansm/Kidney, mouse/Study 1, U74v2/WT E2 kidney (81036))” value (132403_at, AI788603, similar to TSC1_RAT HAMARTIN (TUBEROUS SCLEROSIS 1 PROTEIN HOMOLOG)) was 19. The “E2 Expr (/evansm/Kidney, mouse/Study 1, U74v2/WT E2 kidney (81036))” value (133139_at, AW122295, regulator of G-protein signaling 4) was 4, the “E2 Expr (/evansm/Kidney, mouse/Study 1, U74v2/WT E2 kidney (81036))” value (133672_at, AI451032, Mm.32389) was 11 and the “E2 Expr (/evansm/Kidney, mouse/Study 1, U74v2/WT E2 kidney (81036))” value (134303_at, AI553493, Mm.35319) was 11. For the same compound, the “E2 Expr (/evansm/Kidney, mouse/Study 1, U74v2/WT E2 kidney (81036))” value (136270_at, AI854101, Highly similar to CRFB MOUSE CORTICOTROPIN-RELEASING FACTOR BINDING PROTEIN PRECURSOR) was 12, the “E2 Expr (/evansm/Kidney, mouse/Study 1, U74v2/WT E2 kidney (81036))” value (137525_at, AI098139, Mm.38027) was 4 and the “E2 Expr (/evansm/Kidney, mouse/Study 1, U74v2/WT E2 kidney (81036))” value (139531_at, AW120795, Mm.45188) was 40. For the same compound, the “E2 Expr (/evansm/Kidney, mouse/Study 1, U74v2/WT E2 kidney (81036))” value (162645_at, AI851427, protein kinase, cAMP dependent regulatory, type II beta) was 11, the “E2 Expr (/evansm/Kidney, mouse/Study 1, U74v2/WT E2 kidney (81036))” value (162964_at, AI854153, regulator of G-protein signaling 4) was 11 and the “E2 Expr (/evansm/Kidney, mouse/Study 1, U74v2/WT E2 kidney (81036))” value (162969_at, AW123298, Edil3 EGF-like repeats and discordin I-like domains 3) was 34. The “E2 Expr (/evansm/Kidney, mouse/Study 1, U74v2/WT E2 kidney (81036))” value (162976_at, AI838662, RIKEN cDNA 2700007F12 gene) was 10, the “E2 Expr (/evansm/Kidney, mouse/Study 1, U74v2/WT E2 kidney (81036))” value (163186_at, AI852882, RIKEN cDNA 2610510B01 gene) was 61 and the “E2 Expr (/evansm/Kidney, mouse/Study 1, U74v2/WT E2 kidney (81036))” value (163224_at, AI843147, IGSF1 Immunoglobulin superfamily, member 1) was 27. For the same compound, the “E2 Expr (/evansm/Kidney, mouse/Study 1, U74v2/WT E2 kidney (81036))” value (163370_at, AI591488, Osbpl3 Oxysterol binding protien-like 3) was 10, the “E2 Expr (/evansm/Kidney, mouse/Study 1, U74v2/WT E2 kidney (81036))” value (163941_at, AI646761, RIKEN cDNA 1110018J23 gene) was 71 and the “E2 Expr (/evansm/Kidney, mouse/Study 1, U74v2/WT E2 kidney (81036))” value (164051_at, AV359458, Mm.17850) was 195. For the same compound, the “E2 Expr (/evansm/Kidney, mouse/Study 1, U74v2/WT E2 kidney (81036))” value (164520_f_at, AV302474, Tmprss2 Transmembrane protease, serine 2) was 6, the “E2 Expr (/evansm/Kidney, mouse/Study 1, U74v2/WT E2 kidney (81036))” value (165032_i_at, AV365688, RIKEN cDNA 4933429H19 gene) was 42 and the “E2 Expr (/evansm/Kidney, mouse/Study 1, U74v2/WT E2 kidney (81036))” value (165248_f_at, AV035328, placental lactogen 2) was 38. For the same compound, the “E2 Expr (/evansm/Kidney, mouse/Study 1, U74v2/WT E2 kidney (81036))” value (165569_at, AI847273, Mm.22305) was 5, the “E2 Expr (/evansm/Kidney, mouse/Study 1, U74v2/WT E2 kidney (81036))” value (165678_i_at, AI482191, Mm.33178) was 11 and the “E2 Expr (/evansm/Kidney, mouse/Study 1, U74v2/WT E2 kidney (81036))” value (165710_at, AA815844, sodium channel, nonvoltage-gated 1 gamma) was 9. For the same compound, the “E2 Expr (/evansm/Kidney, mouse/Study 1, U74v2/WT E2 kidney (81036))” value (165772_at, AI851899, RIKEN cDNA 0610039J01 gene) was 29, the “E2 Expr (/evansm/Kidney, mouse/Study 1, U74v2/WT E2 kidney (81036))” value (165866_f_at, AV291803, ribosomal protein L12) was 40 and the “E2 Expr (/evansm/Kidney, mouse/Study 1, U74v2/WT E2 kidney (81036))” value (166021_at, AI481830, Mm.49448) was 12. For the same compound, the “E2 Expr (/evansm/Kidney, mouse/Study 1, U74v2/WT E2 kidney (81036))” value (166843_at, AI851523, Mm.200318) was 174, the “E2 Expr (/evansm/Kidney, mouse/Study 1, U74v2/WT E2 kidney (81036))” value (166849_at, AI853080, Mm.40718) was 16 and the “E2 Expr (/evansm/Kidney, mouse/Study 1, U74v2/WT E2 kidney (81036))” value (167023_f_at, AV016619, biglycan) was 3. For the same compound, the “E2 Expr (/evansm/Kidney, mouse/Study 1, U74v2/WT E2 kidney (81036))” value (168876_f_at, AV044014, kallikrein 21) was 75, the “E2 Expr (/evansm/Kidney, mouse/Study 1, U74v2/WT E2 kidney (81036))” value (169068_i_at, AV206066, RIKEN cDNA 4930434J08 gene) was 2 and the “E2 Expr (/evansm/Kidney, mouse/Study 1, U74v2/WT E2 kidney (81036))” value (170686_f_at, AV362687, Mm.89845) was 58. The “E2 Expr (/evansm/Kidney, mouse/Study 1, U74v2/WT E2 kidney (81036))” value (170896_at, AV066592, Immune associated nucleotide 4) was 3, the “E2 Expr (/evansm/Kidney, mouse/Study 1, U74v2/WT E2 kidney (81036))” value (171390_i_at, AV299689, Mm.21070) was 3 and the “ABCC3 expression in kidney” value (mRNA level) was “induced mRNA levels”. The “NTT73 expression in kidney” value (mRNA level) was “increased mRNA levels”, the “CIS2 expression in kidney” value (mouse, in vivo) was “induction” and the “COR1 (RDC1) expression in kidney” value (mouse, in vivo) was “induced expression”. For the same compound, the “CYP27B1 expression in kidney” value (mouse, in vivo) was “induction”, the “ELF3 expression in kidney” value (mouse, in vivo) was “induced expression” and the “GNBP3 expression in kidney” value (mouse, in vivo) was “induced expression”. For the same compound, the “PHD2 expression in kidney” value (mouse, in vivo) was “induced expression”, the “RGS3 expression in kidney” value (mouse, in vivo) was “induced expression” and the “STAT5A expression in kidney” value (mouse, in vivo) was “induced expression”. The “STAT5B expression in kidney” value (mouse, in vivo) was “induced expression”.

From patent publication US7371207B2 (Wyeth, priority 2002, dated 2008)
